How the values were obtained:
Format in all cases: in vivo
Kochia scoparia = assay: Example 1 post-emergence greenhouse trial, KCHSC; settings: growth stage 19, 21 DAT
Description: In the examples below, using the method of S. R. Colby (1967) “Calculating synergistic and antagonistic responses of herbicide combinations”, Weeds 15, p. 22ff., the value E, which is expected if the activity of the individual active compounds is only additive, was calculated: [formula] • where • X=percent activity using active herbicide A at an application rate a; • Y=percent activity using active herbicide B (e.g. mesotrione) at an application rate b; • E=expected activity (in %) by A+B at application rates a+b. If the value found experimentally is higher than the value E calculated according to Colby, a synergistic effect is present. The culture containers used were plastic pots containing loamy sand with approximately 3.0% of humus as substrate. The seeds of the test plants were sown separately for each species. For the post-emergence treatment, the test plants were grown to a plant height of from 3 to 15 cm, depending on the plant habit, and only then treated with the active compounds which had been suspended or emulsified in water. To this end, the test plants were either sown directly, and grown in the same containers, or they were first grown separately as seedlings and transplanted into the test containers a few days prior to treatment. Depending on the species, the plants were kept at 10-25° C. and 20-35° C., respectively. The test period extended over 2 to 4 weeks. During this time, the plants were tended and their response to the individual treatments was evaluated. Evaluation was carried out using a scale from 0 to 100. 100 means no emergence of the plants, or complete destruction of at least the above-ground parts, and 0 means no damage or normal course of growth. A good herbicidal activity is given at values of at least 70, and very good herbicidal activity is given at values of at least 85. Post-Emergence Application of Herbicide A-1 (A-1) and Mesotrione (B) in Greenhouse Trials Herbicide A-1 (50 g/l) and mesotrione (480 g/l) were, together with addition of 1 v/v % MSO (methylated sed oil) as adjuvant, formulated in water as distribution medium (water volume 200 l/ha) and sprayed with commercial flat fan nozzles.

Erigeron canadensis = assay: Example 2 post-emergence greenhouse trial, ERICA
Description: In the examples below, using the method of S. R. Colby (1967) “Calculating synergistic and antagonistic responses of herbicide combinations”, Weeds 15, p. 22ff., the value E, which is expected if the activity of the individual active compounds is only additive, was calculated: [formula] • where • X=percent activity using active herbicide A at an application rate a; • Y=percent activity using active herbicide B (e.g. mesotrione) at an application rate b; • E=expected activity (in %) by A+B at application rates a+b. If the value found experimentally is higher than the value E calculated according to Colby, a synergistic effect is present. The culture containers used were plastic pots containing loamy sand with approximately 3.0% of humus as substrate. The seeds of the test plants were sown separately for each species. For the post-emergence treatment, the test plants were grown to a plant height of from 3 to 15 cm, depending on the plant habit, and only then treated with the active compounds which had been suspended or emulsified in water. To this end, the test plants were either sown directly, and grown in the same containers, or they were first grown separately as seedlings and transplanted into the test containers a few days prior to treatment. Depending on the species, the plants were kept at 10-25° C. and 20-35° C., respectively. The test period extended over 2 to 4 weeks. During this time, the plants were tended and their response to the individual treatments was evaluated. Evaluation was carried out using a scale from 0 to 100. 100 means no emergence of the plants, or complete destruction of at least the above-ground parts, and 0 means no damage or normal course of growth. A good herbicidal activity is given at values of at least 70, and very good herbicidal activity is given at values of at least 85. Post-Emergence Application of Herbicide A-1 (A-1) and Mesotrione (B) in Greenhouse Trials Herbicide A-1 (342 g/l) and mesotrione (480 g/l) were, together with addition of 0.5 v/v % MSO (methylated sed oil) as adjuvant, formulated in water as distribution medium (water volume 200 l/ha) and sprayed with commercial flat fan nozzles.

Glycine max = assay: Example 3 post-emergence field trial, GLXMA; settings: height 7-11 cm
Description: In the examples below, using the method of S. R. Colby (1967) “Calculating synergistic and antagonistic responses of herbicide combinations”, Weeds 15, p. 22ff., the value E, which is expected if the activity of the individual active compounds is only additive, was calculated: [formula] • where • X=percent activity using active herbicide A at an application rate a; • Y=percent activity using active herbicide B (e.g. mesotrione) at an application rate b; • E=expected activity (in %) by A+B at application rates a+b. If the value found experimentally is higher than the value E calculated according to Colby, a synergistic effect is present. Evaluation was carried out using a scale from 0 to 100. 100 means no emergence of the plants, or complete destruction of at least the above-ground parts, and 0 means no damage or normal course of growth. A good herbicidal activity is given at values of at least 70, and very good herbicidal activity is given at values of at least 85. Post-Emergence Application of Herbicide A-1 (A-1) and Mesotrione (B) in Field Trials Herbicide A-1 (342 g/l) and mesotrione (100 g/l) were, together with addition of 0.5 v/v % MSO (methylated sed oil) as adjuvant, formulated in water as distribution medium (water volume 200 l/ha) and sprayed with commercial flat fan nozzles.

[1] = growth stage 19, 7 DAT, g ai/ha: A-1 1, B 50
[2] = growth stage 19, 20 DAT, g ai/ha: A-1 0.5, B 50
[3] = growth stage 19, 20 DAT, g ai/ha: A-1 2, B 50
[4] = 7 DAT, g ai/ha: A-1 12.5, B 105
[5] = 21 DAT, g ai/ha: A-1 12.5, B 105

CCOC(=O)COc1ccccc1Oc1nc(-n2c(=O)cc(C(F)(F)F)n(C)c2=O)c(F)cc1Cl [A-1, ethyl 2-[2-[[3-chloro-5-fluoro-6-[3-methyl-2,6-dioxo-4-(trifluoromethyl)pyrimidin-1-yl]-2-pyridyl]oxy]phenoxy]acetate]
% herbicidal activity (Kochia scoparia; g ai/ha: A-1 0.5, B 62.5): 65% | % herbicidal activity (Kochia scoparia; g ai/ha: A-1 1, B 62.5): 65% | % herbicidal activity (Erigeron canadensis; [1]): 80% | % herbicidal activity (Erigeron canadensis; [2]): 70% | % herbicidal activity (Erigeron canadensis; [3]): 85% | % herbicidal activity (Glycine max; [4]): 90% | % herbicidal activity (Glycine max; 7 DAT, g ai/ha: A-1 18, B 105): 90% | % herbicidal activity (Glycine max; [5]): 92%

CS(=O)(=O)c1ccc(C(=O)C2C(=O)CCCC2=O)c([N+](=O)[O-])c1 [B, mesotrione]
% herbicidal activity (Kochia scoparia; g ai/ha: A-1 0.5, B 62.5): 75% | % herbicidal activity (Kochia scoparia; g ai/ha: A-1 1, B 62.5): 75% | % herbicidal activity (Erigeron canadensis; [1]): 25% | % herbicidal activity (Erigeron canadensis; [2]): 80% | % herbicidal activity (Erigeron canadensis; [3]): 80% | % herbicidal activity (Glycine max; [4]): 55% | % herbicidal activity (Glycine max; 7 DAT, g ai/ha: A-1 18, B 105): 55% | % herbicidal activity (Glycine max; [5]): 45%
